# Experimental data from publication doi:10.1101/2023.11.24.568596v1 (biorxiv, 2023).
# How the values were obtained:
# Conditions in all cases: binder
# EphB1 = target: T1, EphB1 (Homo sapiens, UniProt P54762)
# T1 sequence (P54762 1-984): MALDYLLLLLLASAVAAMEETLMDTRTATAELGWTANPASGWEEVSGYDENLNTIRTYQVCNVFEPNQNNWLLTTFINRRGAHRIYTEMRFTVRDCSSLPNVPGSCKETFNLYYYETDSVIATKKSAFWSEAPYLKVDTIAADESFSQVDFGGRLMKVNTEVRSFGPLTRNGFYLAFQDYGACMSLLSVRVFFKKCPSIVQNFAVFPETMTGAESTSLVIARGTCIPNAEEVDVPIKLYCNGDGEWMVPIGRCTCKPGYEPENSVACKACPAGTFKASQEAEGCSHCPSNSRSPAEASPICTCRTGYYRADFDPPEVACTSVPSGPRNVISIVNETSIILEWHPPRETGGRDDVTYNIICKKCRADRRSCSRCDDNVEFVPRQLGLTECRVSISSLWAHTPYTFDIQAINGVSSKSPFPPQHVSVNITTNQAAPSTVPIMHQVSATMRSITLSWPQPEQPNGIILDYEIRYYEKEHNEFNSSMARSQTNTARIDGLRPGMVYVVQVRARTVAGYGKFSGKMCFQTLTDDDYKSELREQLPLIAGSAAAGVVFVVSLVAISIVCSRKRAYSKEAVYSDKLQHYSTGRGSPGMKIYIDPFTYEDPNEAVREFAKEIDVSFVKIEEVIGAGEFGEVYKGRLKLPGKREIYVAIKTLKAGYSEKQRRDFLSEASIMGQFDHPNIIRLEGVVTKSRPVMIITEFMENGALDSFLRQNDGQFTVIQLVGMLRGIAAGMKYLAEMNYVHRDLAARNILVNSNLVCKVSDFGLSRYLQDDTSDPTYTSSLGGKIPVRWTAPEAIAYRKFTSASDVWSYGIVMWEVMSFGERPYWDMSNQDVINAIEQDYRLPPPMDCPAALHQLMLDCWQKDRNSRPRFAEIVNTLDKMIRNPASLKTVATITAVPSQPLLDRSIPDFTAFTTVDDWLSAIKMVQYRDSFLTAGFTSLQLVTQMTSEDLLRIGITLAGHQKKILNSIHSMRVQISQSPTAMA
# MER = target: T2, MER (Homo sapiens, UniProt Q12866)
# T2 sequence (Q12866 1-999): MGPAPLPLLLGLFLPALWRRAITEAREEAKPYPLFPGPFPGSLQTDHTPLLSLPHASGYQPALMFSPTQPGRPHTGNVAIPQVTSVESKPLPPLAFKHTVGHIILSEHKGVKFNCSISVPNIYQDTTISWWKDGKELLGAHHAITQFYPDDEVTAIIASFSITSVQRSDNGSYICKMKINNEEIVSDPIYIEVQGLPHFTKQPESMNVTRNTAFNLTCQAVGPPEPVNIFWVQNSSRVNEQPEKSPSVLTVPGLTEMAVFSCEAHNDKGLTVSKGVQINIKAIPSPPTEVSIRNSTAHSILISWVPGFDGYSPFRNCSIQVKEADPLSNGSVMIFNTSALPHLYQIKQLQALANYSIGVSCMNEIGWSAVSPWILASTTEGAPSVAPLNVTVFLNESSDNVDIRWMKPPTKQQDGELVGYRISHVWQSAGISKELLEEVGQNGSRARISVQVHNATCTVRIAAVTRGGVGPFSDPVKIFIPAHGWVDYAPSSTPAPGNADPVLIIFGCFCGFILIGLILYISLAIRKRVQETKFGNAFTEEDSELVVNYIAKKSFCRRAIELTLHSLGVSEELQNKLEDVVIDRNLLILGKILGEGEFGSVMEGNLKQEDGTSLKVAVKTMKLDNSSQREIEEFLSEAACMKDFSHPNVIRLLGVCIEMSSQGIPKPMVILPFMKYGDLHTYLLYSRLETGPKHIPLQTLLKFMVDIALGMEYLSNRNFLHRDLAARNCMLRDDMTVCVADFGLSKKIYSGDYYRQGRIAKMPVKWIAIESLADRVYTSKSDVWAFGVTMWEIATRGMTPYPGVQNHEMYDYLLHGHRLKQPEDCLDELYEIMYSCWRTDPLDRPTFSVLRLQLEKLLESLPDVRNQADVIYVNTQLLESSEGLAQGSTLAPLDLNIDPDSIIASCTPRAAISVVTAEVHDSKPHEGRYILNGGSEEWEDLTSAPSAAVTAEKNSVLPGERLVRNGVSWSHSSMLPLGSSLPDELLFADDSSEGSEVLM
# PCTAIRE1 = PCTAIRE1 (Homo sapiens, UniProt Q00536)
# p38a = p38a (Homo sapiens, UniProt Q16539)
# Sequence of p38a (Q16539 whole entry): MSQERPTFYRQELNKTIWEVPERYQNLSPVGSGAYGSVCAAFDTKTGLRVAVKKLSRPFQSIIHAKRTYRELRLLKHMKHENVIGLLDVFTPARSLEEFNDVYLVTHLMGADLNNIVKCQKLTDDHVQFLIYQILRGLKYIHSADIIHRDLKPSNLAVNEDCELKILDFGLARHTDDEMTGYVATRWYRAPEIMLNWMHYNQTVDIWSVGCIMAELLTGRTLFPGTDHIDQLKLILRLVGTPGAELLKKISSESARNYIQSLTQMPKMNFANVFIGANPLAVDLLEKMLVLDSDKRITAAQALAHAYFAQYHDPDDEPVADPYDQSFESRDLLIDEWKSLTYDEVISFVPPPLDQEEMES
# Sequence of PCTAIRE1 (Q00536 whole entry): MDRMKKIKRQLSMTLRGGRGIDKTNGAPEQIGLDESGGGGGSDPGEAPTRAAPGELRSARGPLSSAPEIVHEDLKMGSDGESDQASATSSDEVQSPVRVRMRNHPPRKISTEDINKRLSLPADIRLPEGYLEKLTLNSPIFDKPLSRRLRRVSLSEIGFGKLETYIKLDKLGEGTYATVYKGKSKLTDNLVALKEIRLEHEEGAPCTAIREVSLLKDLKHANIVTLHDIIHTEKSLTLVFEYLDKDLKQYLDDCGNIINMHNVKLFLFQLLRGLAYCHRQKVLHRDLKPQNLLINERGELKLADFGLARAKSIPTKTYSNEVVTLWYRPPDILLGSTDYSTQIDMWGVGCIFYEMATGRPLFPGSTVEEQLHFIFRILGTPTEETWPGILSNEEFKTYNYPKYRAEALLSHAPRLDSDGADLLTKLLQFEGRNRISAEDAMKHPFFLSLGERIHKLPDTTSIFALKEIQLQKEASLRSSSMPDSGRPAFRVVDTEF
smiles,measurement,setting,value
"Cc1cccc(-c2ccc(-c3cc4cnc(Nc5ccc(F)c(CO)c5)nc4n(CCCCN)c3=O)c(Cl)c2)n1 [compound 33, 8-(4-Aminobutyl)-6-(2-chloro-4-(6-methylpyridin-2-yl)phenyl)-2-((4-fluoro-3-(hydroxymethyl)phenyl)amino)pyrido[2,3-d]pyrimidin-7(8H)-one]",dTm 33,EphB1,6.5 °C
same,dTm 33,MER,3.1 °C
same,dTm 33,PCTAIRE1,5.2 °C
same,dTm 33,p38a,4.7 °C
"COc1ccc(O)c(Nc2ncc3cc(-c4ccc(-c5cccc(C)n5)cc4Cl)c(=O)n(CCCCN)c3n2)c1 [compound 34, 8-(4-Aminobutyl)-6-(2-chloro-4-(6-methylpyridin-2-yl)phenyl)-2-((2-hydroxy-5-methoxy-phenyl)amino)pyrido[2,3-d]pyrimidin-7(8H)-one]",dTm 34,EphB1,5.2 °C
same,dTm 34,MER,0.1 °C
same,dTm 34,PCTAIRE1,0.6 °C
same,dTm 34,p38a,3.0 °C
"COc1cc(N2CCOCC2)ccc1Nc1ncc2cc(-c3ccc(-c4cccc(C)n4)cc3Cl)c(=O)n(CCCCN)c2n1 [compound 35, 8-(4-Aminobutyl)-6-(2-chloro-4-(6-methylpyridin-2-yl)phenyl)-2-((2-methoxy-4-morpholino-phenyl)amino)pyrido[2,3-d]pyrimidin-7(8H)-one]",dTm 35,EphB1,6.0 °C
same,dTm 35,MER,0.0 °C
same,dTm 35,PCTAIRE1,0.1 °C
same,dTm 35,p38a,3.8 °C
"COc1cc(N2CCN(C)CC2)ccc1Nc1ncc2cc(-c3ccc(-c4cccc(C)n4)cc3Cl)c(=O)n(CCCCN)c2n1 [compound 36, 8-(4-Aminobutyl)-6-(2-chloro-4-(6-methylpyridin-2-yl)phenyl)-2-((2-methoxy-4-(4-methylpiperazin-1-yl)phenyl)amino)pyrido[2,3-d]pyrimidin-7(8H)-one]",dTm 36,EphB1,5.5 °C
same,dTm 36,MER,-0.2 °C
same,dTm 36,PCTAIRE1,0.2 °C
same,dTm 36,p38a,3.7 °C
